Measurements reported in article PMC5064002, “Sintokamide A Is a Novel Antagonist of Androgen Receptor That Uniquely Binds Activation Function-1 in Its Amino-terminal Domain” (The Journal of Biological Chemistry, 2016).

Columns and labels:
PC3 cells = test system: PC3 cells; set-up: method as in PMID 18834139; conditions: cited from earlier work
AR-YFP = target: T1, AR-YFP (Homo sapiens, UniProt P10275); assay: AR nuclear translocation (AR-YFP) in LNCaP cells; format: cell-based; conditions: 10 μM compound
T1 construct: expressed in transfected cells; host or cells: LNCaP
T1 sequence (P10275 1-920): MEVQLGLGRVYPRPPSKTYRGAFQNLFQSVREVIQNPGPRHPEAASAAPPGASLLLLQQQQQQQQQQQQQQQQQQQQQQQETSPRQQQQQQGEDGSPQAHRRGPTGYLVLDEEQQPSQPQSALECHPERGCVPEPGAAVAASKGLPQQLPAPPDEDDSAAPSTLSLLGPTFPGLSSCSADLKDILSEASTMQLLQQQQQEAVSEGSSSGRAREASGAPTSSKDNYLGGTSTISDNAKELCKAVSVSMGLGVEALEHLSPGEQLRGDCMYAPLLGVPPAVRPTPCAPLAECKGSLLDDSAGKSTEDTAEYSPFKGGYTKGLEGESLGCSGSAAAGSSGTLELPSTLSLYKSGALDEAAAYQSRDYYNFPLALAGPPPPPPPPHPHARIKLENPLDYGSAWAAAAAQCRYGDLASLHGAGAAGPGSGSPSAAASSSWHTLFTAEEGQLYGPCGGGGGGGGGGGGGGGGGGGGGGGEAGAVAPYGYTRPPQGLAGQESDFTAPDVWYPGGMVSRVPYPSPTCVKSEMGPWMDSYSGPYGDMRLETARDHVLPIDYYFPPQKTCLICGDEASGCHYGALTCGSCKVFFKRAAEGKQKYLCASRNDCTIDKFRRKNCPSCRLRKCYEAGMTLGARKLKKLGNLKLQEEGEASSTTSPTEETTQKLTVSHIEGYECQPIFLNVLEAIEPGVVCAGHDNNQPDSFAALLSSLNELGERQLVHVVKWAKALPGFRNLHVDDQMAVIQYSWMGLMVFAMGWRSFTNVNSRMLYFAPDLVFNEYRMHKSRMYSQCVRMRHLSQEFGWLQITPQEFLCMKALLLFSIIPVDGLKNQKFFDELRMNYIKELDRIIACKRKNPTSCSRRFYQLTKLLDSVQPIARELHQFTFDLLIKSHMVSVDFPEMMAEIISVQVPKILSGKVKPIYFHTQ
Description: Cells were exposed to 1 nM R1881 for an additional 2 h, fixed with paraformaldehyde, and mounted in Vectashield antifade mounting medium with DAPI (H-1200, Vector Laboratories). Cellular localization of AR was examined by fluorescence microscopy using an Axiovert 200 microscope equipped with a YFP filter (excitation, 500/20 nm; emission, 535/30 nm; Zeiss, Toronto, Ontario, Canada). Images were taken using a Axiocam MR camera and the AxioVision 4.4 software (Zeiss, Toronto, ON, Canada).

[1] = target: T2, glucocorticoid receptor (GR)-α (Homo sapiens, UniProt P04150); assay: Steroid receptor specificity: GRE-luciferase reporter in LNCaP cells; format: cell-based; conditions: 10 μM compound, 10 nM dexamethasone, 48 h
T2 construct: expressed in transfected cells; host or cells: LNCaP
T2 sequence (P04150 1-777): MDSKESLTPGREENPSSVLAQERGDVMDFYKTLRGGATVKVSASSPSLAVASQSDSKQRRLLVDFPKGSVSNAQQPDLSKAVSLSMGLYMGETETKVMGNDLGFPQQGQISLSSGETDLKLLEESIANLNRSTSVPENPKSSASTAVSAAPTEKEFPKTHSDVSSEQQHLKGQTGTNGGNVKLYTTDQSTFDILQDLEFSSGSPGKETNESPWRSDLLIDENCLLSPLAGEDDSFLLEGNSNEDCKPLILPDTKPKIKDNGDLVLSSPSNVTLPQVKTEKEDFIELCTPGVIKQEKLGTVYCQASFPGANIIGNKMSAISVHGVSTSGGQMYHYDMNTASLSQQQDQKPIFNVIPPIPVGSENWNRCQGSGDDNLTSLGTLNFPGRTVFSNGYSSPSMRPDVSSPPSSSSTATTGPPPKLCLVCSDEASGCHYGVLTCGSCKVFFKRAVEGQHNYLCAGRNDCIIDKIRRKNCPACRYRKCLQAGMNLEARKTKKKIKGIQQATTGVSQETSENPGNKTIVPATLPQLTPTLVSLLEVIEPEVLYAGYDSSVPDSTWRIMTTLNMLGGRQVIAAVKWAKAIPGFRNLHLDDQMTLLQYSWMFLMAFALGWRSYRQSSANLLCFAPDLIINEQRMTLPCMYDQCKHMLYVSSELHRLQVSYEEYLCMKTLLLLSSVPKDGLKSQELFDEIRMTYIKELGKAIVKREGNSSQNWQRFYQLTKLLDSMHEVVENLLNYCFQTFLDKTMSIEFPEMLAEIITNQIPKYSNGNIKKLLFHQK
Description: LNCaP cells were transfected with the reporter plasmid PSA(6.1kb)-luciferase, PRE-luciferase, or GRE-luciferase and expression vector for progesterone receptor (PR)-β or glucocorticoid receptor (GR)-α in serum-free, phenol red-free medium using Lipofectin (Invitrogen). […] After 48 h of treatment, cells were lysed and analyzed for luciferase activities.
FIGURE 1. […] A, LNCaP cells were transfected with PSA (6.1 kb)-luciferase, PRE-luciferase, or GRE-luciferase reporters and expression vector for PRβ or GRα. […] Error bars represent mean percentage of vehicle activity ±S.E. of at least three independent experiments with triplicate wells. SINT1, 10 μM; […]; ***, p < 0.001. […]. Error bars represents mean ± S.E. of three technical replicates. […] DAPI staining indicates the location of the nucleus. Scale bars, 20 μm.

Compound: CCC(=O)NC(CC(C)C(Cl)(Cl)Cl)C(=O)N1C(=O)C=C(OC)C1CC(C)C(Cl)Cl (stereo not shown) [SINT1, Sintokamide A]
- effect on PC3 cells that do not depend on AR for growth and survival (PC3 cells): no effect
- nuclear translocation of AR in the absence of androgen (AR-YFP): AR remained cytoplasmic
- nuclear translocation of AR in the presence of androgen (AR-YFP; 1 nM R1881 2 h): Androgen induced AR translocation to the nucleus regardless of treatments
- GR transcriptional activity (GRE-luciferase) [1]: did not affect
